These results are taken from PubChem BioAssay AID776 (The Scripps Research Institute Molecular Screening Center, 2007).

A word on the IC50: it is the concentration that inhibits the measured activity by half.

Active and inactive are the calls of the source.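 How the source made its calls: active means compounds whose IC50 for cutting the S1P-driven reporter signal is at most 40 micromolar; inactive means IC50 above 40 micromolar.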

The target in the experiment is CHO S1P3/Ga15 NFAT-beta-lactamase reporter, FRET. The experiment in a line: S1P3 receptor NFAT-BLA reporter inhibition, dose response, counter-screen for 5HT1E antagonist project, CHO cells, Ga15, NFAT beta-lactamase, FRET (AID 776). (Counterscreens check selectivity or assay interference.)
`CC(=O)Oc1ccc(N2C(=O)C3C(C2=O)C2(C)C=CC3(C)O2)cc1` (stereo not given): the IC50 was 7.56 µM. As to `COc1ccc(N2C(=O)CC(NCc3ccncc3)C2=O)cc1` (stereo not given), the IC50 was > 50 µM (inactive). Next, `COc1cc2c(cc1OC)C1=C(C#N)CC/C(=N\S(=O)(=O)c3ccccc3)N1CC2`: > 50 µM (inactive).

For `O=C1C2C3C=CC(CO)(O3)C2C(=O)N1c1ccc(-c2ccccc2)cc1` (stereo not given), the IC50 is > 12.4 µM (inactive). Next, `CSc1ccccc1N=CC1=C(O)CC(C)(C)CC1=O`: 4.33 µM.
